Measurements reported in patent US8883856B2, “Compositions and methods for the treatment of inflammatory diseases using topoisomerase inhibitors” (priority 2000, dated 2014).
Values after ≈ are worked out from the molar mass of the structure shown. Where two headings read alike, the source gives them in different places.

Tests used:
[1] = tested on: caspase 3; test: Caspase 3 activation in neutrophils (caspACE assay system); assay type: cell-based, human
Excerpt: (§1) The inflammation associated with many forms of arthritis is thought to arise from the presence of large numbers of immune cells, such as neutrophils, in the synovial joints of humans. The extended inflammation associated with crystal induced arthritis arises from the interaction of neutrophils with crystals in the synovial joint. One reason the extended duration of the inflammation in this disease may be due to the inhibition of neutrophil apoptosis by crystals. This inhibition may result in the neutrophils remaining in the joint for extended periods. Compounds that overcome this crystal induced suppression of neutrophil apoptosis therefore allow the more rapid clearance of these cells from the joint with the appropriate abatement of inflammation. The process of apoptosis involves the endonuclease driven cleavage of DNA into fragments which may be visualized as a ladder of bands in an agarose gel electrophoresis experiment. Other assays that may be used include caspase 3 quantitation or measurements of cytoplasmic DNA concentration. […] Agents that inhibit caspase activation levels or reduce cytoplasmic DNA are pro-survival (potentially inflammatory) and agents that promote are pro-apoptotic and anti-inflammatory. The use of these methods and their role in neutrophil affected inflammation is described in detail in Tudan et al. J Rheumatol. 27 p 2463-72. 2000.
(§2) Methods: Agarose gel banding/laddering of 180 base pairs: Neutrophils were separated from fresh human blood by standard methods (dextran sedimentation and ficoll paque centrifugation) and suspended in buffer at a concentration of 1×10^6 cells/ml. The cells were then incubated with crystals of calcium pyrophosphate dihydrate (CPPD) for 1 hours at 37° C. The cells were then incubated with or without camptothecin (0.1 uM) for 4 hours at 37° C. Neutrophil aliquots (1×10^6 cells) from different conditions were resuspended in 480 μl of lysis buffer (0.6% SDS, 10 mM Tris, 1 mM EDTA (pH 7.0)) and after vigorous mixing were allowed to sit on ice for 20 min after addition of 120 μl of 5M NaCl. In caspase 3 and DNA fragmentation assays a milder detergent (Triton) was used to lyse only the plasma membrane of the cells so that cytoplasmic contents (caspase 3 or DNA fragments) could be assayed. Samples were sedimented at 14,000 rpm at 4° C. for 20 min. The pellet was dried and resuspended in phenol:chloroform. Four hundred fifty μl of the upper phase was added to a new tube, which was then charged with 950 μl of […] and held at −20° C. for 10 min. The DNA was sedimented at 14,000 rpm (4° C.) and carefully washed in 75% ethanol without disturbing the pellet. The DNA was dried at 37° C. and then resuspended in 20 μl sample buffer (50% TBE with 1 μl of 1 ng/ml RNase A (Pharmacia)). The samples were vortexed and allowed to stand at 37° C. for 10 min. Five μl of loading dye (20% Ficoll Paque (Pharmacia), 0.1% bromophenol blue, 0.1% xylene cyanole) was added. Electrophoresis was carried out in 2% agarose at 80 mA, and the gel was then stained with ethidium bromide (Pharmacia) and photographed under U.V. illumination.
Caspase 3 activation was assayed using a commercial kit for this enzyme (caspACE assay system, Promega Scientific) and cyotplasmic DNA was assayed using a commercial kit (Cell death detection ELISA-Boehringer—Mannheim).

[2] = tested on: neutrophils; test: Cytoplasmic DNA fragmentation in neutrophils (Cell death detection ELISA); assay type: cell-based, human
Excerpt: as §1
as §2, with “The samples were vortexed and allowed to stand at 37° C. for 10 min. Five μl of loading dye (20% Ficoll Paque (Pharmacia), 0.1% bromophenol blue, 0.1% xylene cyanole) was added. Electrophoresis was carried out in 2% agarose at 80 mA, and the gel was then stained with ethidium bromide (Pharmacia) and photographed under U.V. illumination.” left out

[3] = tested on: synoviocytes (HIG.82 rabbit); test: MTT proliferation/cytotoxicity assay, synoviocytes; assay type: cell-based; conditions: Oryctolagus cuniculus, 48 h, read-out: inhibitory concentration that gave 50% effect on proliferation (IC50), synoviocytes
Protocol: (§3) Proliferation was determined using the MTT proliferation/cytotoxicity assay.
(§4) On day one, 1500-2000 smooth muscle cells (A7r5 rat embryonic thoracic aorta) or synoviocytes (HIG.82 rabbit) were plated per well on a 96-well plate, leaving the first column free of cells (blank). The plate was placed back into the 37° C., CO2 incubator. The following day camptothecin was added at various concentrations. No drugs were added to the first column (blank) and the second column (untreated column) for control. The cells were exposed for 24, 48, and 72 hours. At the end of the exposure period, 50 μl of dimethylthiazol diphenyltetrazolium bromide salt (MTT) dissolved in media was added and allowed to incubate for 4 hours at 37° C. The medium was then aspirated and 200 μl of dimethyl sulfoxide was added. The plate was agitated for 30 minutes and the absorbance read at 562 nm. The optical density measurement was converted to number of cells using a standard plot of optical density with known number of cells and cell viability was expressed as % growth (this value is the % of the control cells).

[4] = tested on: smooth muscle cells (A7r5 rat embryonic thoracic aorta); test: MTT proliferation/cytotoxicity assay, smooth muscle cells; assay type: cell-based; conditions: A7R5, 48 h, read-out: inhibitory concentration that gave 50% effect on proliferation (IC50), smooth muscle cells
Protocol: as §3, §4

[5] = tested on: human neutrophils; test: Neutrophil chemiluminescence (neutrophil activation); assay type: cell-based; conditions: Homo sapiens, Neutrophil; activation by MSUM crystals; read-out: IC 50, inhibition of neutrophil chemiluminescence
Protocol: Freshly prepared human neutrophils were incubated with the compound followed by stimulation of the cells with either plasma opsonized CPPD crystals, the bacterial chemoattractant, fMLP or the phorbol ester, PMA. Stimulation (or activation) of the cells induced superoxide anion generation which could be measured by the emission of light (chemiluminescence). Inhibition of neutrophil function was then determined by inhibition of chemiluminescence. Hanks buffered salt solution (HBSS) pH 7.4 was used throughout the study. All chemicals were purchased from Sigma Chemical Co. (St. Louis, Mo.) unless otherwise stated. All procedures were performed at 37° C. unless otherwise stated. CPPD (triclinic) crystals were prepared and characterized as previously reported (Jackson J K et al., J Rheumatol, 24: 341-348, 1996). The size distribution of the crystals was approximately 33% less than […]. Opsonization of crystals was carried out using 50% heparinized plasma and concentrations of 50 mg of CPPD in 1 mL of 50% plasma. Crystals were incubated with diluted plasma for 30 min at 37° C., centrifuged at 1000×g, then washed in HBSS and recentrifuged. Neutrophils were prepared from freshly collected, human, citrated whole blood. Briefly, 400 mL of blood were mixed with 80 mL of 4% dextran T500 (Pharmacia LKB, Biotechnology AB Uppsala, Sweden) in HBSS and allowed to settle for 1 h. Plasma was collected continuously and 5 mL applied to 5 mL Ficoll Paque (Pharmacia) in 15 mL polypropylene tubes (Corning, N.Y.). Following centrifugation at 500×g for 30 min, the neutrophil pellets were washed free of erythrocytes by 20 s of hypotonic shock. Neutrophils were resuspended in HBSS, kept on ice and used for experiments within 3 h. Neutrophil viability and purity was always greater than 90%.
A stock solution of drug was diluted in DMSO to give various concentrations of drug. Equal volumes of these solutions were added to neutrophils at 5×10^6 cells per mL under mild vortexing to achieve final concentrations with a final DMSO concentration of 0.25%. This DMSO concentration found to have no effect on control cell responses. Cells were incubated for 15 minutes at 37° C. before addition to crystals, fMLP or PMA.
Chemiluminescence studies were performed at a cell concentration of 5×10^6 cells per mL in HBSS with CPPD (50 mg/mL). In all experiments 0.5 mL of cells were added to 25 mg of CPPD or 1 uM fMLP (and 0.5 uM cytochalasin B) or 0.5 uM PMA in 1.5 ml Eppendorf tubes. To the tubes were added 10 uL of luminol dissolved in 25% DMSO in HBSS to give a final concentration of 1 μM and the samples were mixed to initiate neutrophil activation. Chemiluminescence was monitored using an LKB Luminometer (Model 1250) at 37° C. with shaking immediately prior to measurements to resuspend the crystals. Control tubes contained cells, drug and luminol (crystals absent).

[6] = tested on: surgical adhesions; assay type: in vivo; conditions: drug-loaded crosslinked HA films (camptothecin 2.5%, doxorubicin 2.5%, beta-lapachone 5%, curcumin 10%), rats
Protocol: The rat caecal-sidewall adhesion model was used to test efficacy of crosslinked hyaluroinc acid (HA) polymeric films loaded with one of the following compounds; camptothecin 2.5% loading (w/w to polymer), curcumin 10%, doxorubicin 2.5%, beta-lapachone at 5% or unloaded-no-drug control. Films of 2-2.5 cm^2 were prepared with each drug by the method described in example 10. ETO sterilized, and divided in half at the time of surgical implantation. Sham surgeries omitted the application of HA film as separate controls.
Sprague Dawley rats, 15 male and 15 female, weighing 250-400 g were anaesthetized with Halothane (5%) and maintained, by nose cone, on 1.5-2% Halothane. Surgeries were conducted under sterile conditions. The abdomen was shaved, scrubbed with an antiseptic wash, and opened at the linea alba with a 3 cm incision. A region of the abdominal cavity immediately opposite the large bowel was isolated with bowel clamps, and a #11 scalpel blade was used to score a section of the transversus muscle, describing a rectangle 1×1.5 cm. The muscle was stripped from the peritoneal sidewall with forceps, and minor bleeding was arrested by tamponade. The large bowel was then externalized with sterile swabs, and caecal contents evacuated into the large bowel. Both surfaces of the caecum were stroked, 45 times on each side, with a #10 scalpel blade to produce erythema and punctated bleeding. Each stroke spanned the caecal diameter (approximately 1 cm), and extended along 1.5 cm of the caecal extremity. In only one case did this abrasion procedure cause sustained bleeding requiring ligation. Following 90 blade strokes, the integrity of the tissue was confirmed, and caecum and large bowel were replaced in the pelvis.
The film was laid over the rectangular sidewall abrasion (except in the case of sham surgeries), covering the area of damaged tissue. The abraded caecum, relocated in its previous orientation, was than overlaid such that the entire sidewall wound and film were covered by it. Four tacking sutures were placed at the outer extremities of the abraded area of the caecum securing it to the intact peritoneal sidewall immediately outside the rectangular wound area. The abdomen was closed in two layers, and antibiotics administered intramuscularly before the animal regained consciousness.
. Adhesions over, and adjacent to the caecum were rated according to the following findings: 0: No adhesions connecting caecum to sidewall wound; 1: Filmy or stranded were separable by blunt dissection; 2: Cohesive adhesions attaching the caecum to the sidewall were separable by aggressive blunt dissection; 3: Adhesions inseparable without cutting, or without tearing/damaging caecum. Fractions were assigned where a variety of ratings seemed applicable.

SMILES: COC(=O)[C@@H]1c2cc3c(c(O)c2[C@@H](O[C@@H]2O[C@@H](C)[C@H](OC)[C@@](C)(OC)[C@H]2OC)C[C@]1(C)O)C(=O)c1c(O)cc2c(c1C3=O)O[C@@H]1O[C@@]2(C)[C@H](O)[C@@H](N(C)C)[C@@H]1O [nogalamycin]
- caspase 3 activation in neutrophils [1]: induced an increase in the activation of caspase 3 levels

SMILES: O=C1c2c(O)ccc(O)c2C(=O)c2c(NCCNCCO)ccc(NCCNCCO)c21 [mitoxantrone]
- caspase 3 activation in neutrophils [1]: induced an increase in the activation of caspase 3 levels
- cytoplasmic DNA fragments in neutrophils [2]: significant increase in cytoplasmic DNA

SMILES: O=C1C=CC(=O)c2c(O)cccc21 [juglone]
- IC50 [3]: 4.3 µM
- IC50 [4]: 2 µM
- IC50 [5]: 0.5 to 1 µg/mL (≈ 2.87 to 5.74 µM)

SMILES: COc1cc(/C=C/C(=O)CC(=O)/C=C/c2ccc(O)c(OC)c2)ccc1O [curcumin]
- surgical adhesion formation, in words [6]: no inhibition of adhesion formation
- surgical adhesion formation, in words ([6]; listed as circumin): no inhibitory effect on surgical adhesion formation in rats
